From patent US20230105667A1, “MESENCHYMAL STROMAL CELLS AND EXTRACELLULAR VESICLES FOR TREATING VIRAL INFECTIONS, INFLAMMATION, AND TISSUE FIBROSIS” (EXOSTEM BIOTEC LTD., priority 2020, published 2023)

System: Immortalized human bronchial epithelial (HBE) cells
Format: cell-based
Conditions: HBE cells with S1 peptide; EVs, drugs alone or combined

In the case of C=C(C)[C@@H]1CCC(C)=C[C@H]1c1c(O)cc(CCCCC)cc1O [CBD, cannabidiol], the “reduction in inflammation (TNFα expression)” value is reported as “modest reduction in inflammation”.

CN(C)C(=N)N=C(N)N [metformin] was tested, and the “reduction in inflammation (TNFα expression)” value was “modest reduction in inflammation”.
